Assay [1] addresses T1, c-Met (Homo sapiens, UniProt P08581).
T1 construct: host or cells: PC3 (human)
Briefly: c-Met cell-based autophosphorylation assay, PC3 cells (HGF stimulated, IGEN readout). The conditions noted are these: HGF 250 ng/mL. As for the experimental part:
(§1) c-Met Cell-Based Autophosphorylation Assay
(§2) Human PC3 and mouse CT26 cells are available obtained from ATCC. […] 2×10^4 cells in medium were plated per well in a 96 well plate and incubated at 37° C. overnight. The cells were serum-starved by replacing the growth media with basic medium (DMEM low glucose+0.1 BSA, 120 μL per well) at 37° C. for 16 h. […] Compound samples (2.4 μL per well) were diluted with basic medium (240 μL) in a 96 well plate. […] The cells were incubated at 37° C. for 1 h. A (2 mg/mL) solution of CHO-HGF (7.5 μL) was diluted with 30 mL basic medium to provide a final concentration of 500 ng/mL. This HGF-containing media (120 μL) was transferred to a 96 well plate. Compounds (1.2 μL) was added to the HGF-containing media and mixed well.
(§3) BSA/0.1% Tween20) by rotating for 30 min at RT. Antibody beads (25 μL) were transferred to a 96 well plate. Cell lysate solution (25 μL) was transferred added and the plate was shaken at RT for 1 h. […] 1×PBS (175 μL) was added to each well and the electrochemiluminescence was read by an IGEN M8. Raw data was analyzed using a 4-parameter fit equation in XLFit. IC50 values are then determined using Grafit software.

The target in assay [2] is T2, c-Met (Mus musculus, UniProt P16056).
T2 construct: host or cells: CT26 (mouse)
Briefly: c-Met cell-based autophosphorylation assay, CT26 cells (HGF stimulated, IGEN readout). The note with it: HGF 250 ng/mL. As for the experimental part:
as §1, §2, §3

Assay [3] has as its target T3, c-Met kinase domain (GST-cMet) (Homo sapiens, UniProt P08581).
T3 construct: A PCR product covering residues 1058-1365 of c-Met (c-Met kinase domain); made in house; host or cells: High5 insect cells (baculovirus, BacToBac)
In words: c-Met receptor assay (HTRF kinase assay with GST-cMet (P) enzyme, gastrin and ATP). Format: biochemical. The note with it: for IC50: c-Met receptor assay; for Ki: illustrative activity values, HTRF kinase assay with GST-cMet (P) enzyme. As for the experimental part: Cloning, Expression and Purification of c-Met Kinase Domain
The PCR product is cloned into a modified pFastBac1 expression vector (harboring the gene for S. japonicum glutathione S-transferase immediately upstream of the multiple cloning site) using standard molecular biological techniques. The GST-c-Met kinase domain fusion (GST-Met) gene is transposed into full-length baculovirus DNA using the BacToBac™ system (Invitrogen). High5 cells are infected with the recombinant baculovirus for 72 h at 27° C. The infected cells are harvested by centrifugation and the pellet is stored at −80° C. The pellet is resuspended in buffer A (50 mM HEPES, pH 8.0, 0.25 M NaCl, 10 mM 2-mercaptoethanol, 10% (w/v) glycerol, 0.5% (v/v) protease inhibitor cocktail (Sigma P8340), stirred at 4° C. to homogeneity, and the cells are disrupted by microfluidization (Microfluidics) at 10,000 psi. The resulting lysate is centrifuged at 50,000×g for 90 min at 4° C., and the supernatant is adsorbed onto 10 mL of glutathione Sepharose™ 4B (Amersham) by batch method. The slurry is rocked gently overnight at 4° C. The glutathione resin is harvested by centrifugation and washed three times with 40 mL buffer A by batch method. The resin is washed three times with buffer B (buffer A adjusted to 0.1 M NaCl, less protease inhibitors). The protein is eluted with buffer B containing 25 mM reduced glutathione. Eluted fractions are analyzed by SDS-PAGE and concentrated to <10 mL (˜10 mg/mL total protein). The concentrated protein is separated by Superdex™ 200 (Amersham) size exclusion chromatography in buffer C (25 mM Tris, pH 7.5, 0.1 M NaCl, 10 mM 2-mercaptoethanol, 10% glycerol). The fractions are analyzed by SDS-PAGE and the appropriate fractions are pooled and concentrated to ˜1 mg/mL. The protein is aliquotted and stored at −80° C.
Alternative Purification of Human GST-cMET from Baculovirus Cells
The resin is washed with 10 column volumes (100 mL) of Lysis Buffer. […] The elution is collected as 15 mL fractions. Aliquots of the elution fractions are run on SDS PAGE (12% Tris Glycine gel, Invitrogen, #EC6005BOX). The gel is stained with 0.25% Coomassie Blue stain. Fractions with GST-cMET are concentrated with a Vivaspin 20 mL Concentrator (#VS2002; […]) to a final volume less than 2.0 ml. […] The GST-cMET is eluted with an isocratic run of the above buffer, with the eluent collected in 1.0 mL fractions. Fractions with significant OD280 readings are run on another 12% Tris Glycine gel. The peak tubes with GST-cMET are pooled and the OD280 is read with the column buffer listed above as the blank buffer.
Phosphorylation of the purified GST-cMET is performed by incubating the protein for 3 h at RT with the following:
After incubation, the solution is concentrated in a Vivaspin 20 ml Concentrator to a volume less than 2.00 ml. The solution is applied to the same Superdex 75 16/60 column used above after re-equilibration. The GST-cMET is eluted as described above. The elution fractions corresponding to the first eluted peak on the chromatogram are run on a 12% Tris Glycine gel, as above, to identify the fractions with GST-cMET. Fractions are pooled and the OD280 is read with the column buffer used as the blank.
A Kinase reaction Buffer is prepared as follows:
When the assay is carried out, freshly add:
The HTRF buffer contains:
1. […] 2. […] Then incubate the plate at RT for 30 min. 3.
Use Biomek FX to add 20 μl ATP and Gastrin working solution to the assay plate to start reaction, incubate the plate at RT for 1 h. 4.
KM ATP, KM gastrin for various enzymes were determined by HTRF/^33P labeling and HTRF methods.

Each structure is given as a SMILES string. Bounds are passed on as bounds.

Usually IC50 stands for the concentration that gives 50% inhibition. A higher IC50 goes with lower potency. The Ki is a measure of affinity in units of concentration, obtained from inhibition or displacement. Low readings indicate a stronger hold on the target, high ones a looser hold on the target.

T1 sequence (P08581 25-1390): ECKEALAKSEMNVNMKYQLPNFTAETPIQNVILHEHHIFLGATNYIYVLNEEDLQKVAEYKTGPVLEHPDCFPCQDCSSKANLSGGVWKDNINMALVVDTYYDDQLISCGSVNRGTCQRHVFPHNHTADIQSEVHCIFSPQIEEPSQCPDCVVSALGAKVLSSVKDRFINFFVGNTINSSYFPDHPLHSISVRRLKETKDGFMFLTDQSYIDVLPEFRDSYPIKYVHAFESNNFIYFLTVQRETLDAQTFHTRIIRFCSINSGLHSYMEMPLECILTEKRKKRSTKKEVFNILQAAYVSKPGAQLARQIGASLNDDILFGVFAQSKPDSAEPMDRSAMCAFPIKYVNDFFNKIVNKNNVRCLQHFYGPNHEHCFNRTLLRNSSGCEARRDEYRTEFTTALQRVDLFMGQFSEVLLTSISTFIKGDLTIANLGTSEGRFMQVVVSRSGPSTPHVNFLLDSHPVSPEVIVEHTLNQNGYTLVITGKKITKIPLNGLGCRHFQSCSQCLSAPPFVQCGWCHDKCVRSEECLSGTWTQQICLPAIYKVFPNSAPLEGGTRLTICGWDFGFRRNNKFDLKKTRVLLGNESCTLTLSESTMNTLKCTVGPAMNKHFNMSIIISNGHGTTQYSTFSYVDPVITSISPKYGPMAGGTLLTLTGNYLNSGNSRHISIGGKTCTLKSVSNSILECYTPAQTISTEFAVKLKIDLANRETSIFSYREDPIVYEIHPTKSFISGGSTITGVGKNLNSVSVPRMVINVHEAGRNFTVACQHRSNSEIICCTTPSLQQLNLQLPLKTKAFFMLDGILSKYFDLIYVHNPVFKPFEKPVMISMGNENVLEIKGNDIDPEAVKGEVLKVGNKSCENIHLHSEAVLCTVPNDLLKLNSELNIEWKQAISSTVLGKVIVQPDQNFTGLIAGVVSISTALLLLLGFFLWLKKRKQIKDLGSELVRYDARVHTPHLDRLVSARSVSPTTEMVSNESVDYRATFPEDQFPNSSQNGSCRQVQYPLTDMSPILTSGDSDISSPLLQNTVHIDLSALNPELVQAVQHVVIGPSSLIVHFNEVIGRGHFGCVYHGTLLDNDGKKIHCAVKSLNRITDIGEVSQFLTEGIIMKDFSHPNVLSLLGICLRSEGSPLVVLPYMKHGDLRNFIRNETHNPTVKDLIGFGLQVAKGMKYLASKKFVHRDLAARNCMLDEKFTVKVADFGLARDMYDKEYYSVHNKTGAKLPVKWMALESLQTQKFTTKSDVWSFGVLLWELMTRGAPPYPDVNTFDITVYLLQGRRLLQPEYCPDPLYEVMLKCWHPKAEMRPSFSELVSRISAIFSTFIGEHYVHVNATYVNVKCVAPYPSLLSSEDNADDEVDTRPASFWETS
T2 sequence (P16056 25-1379): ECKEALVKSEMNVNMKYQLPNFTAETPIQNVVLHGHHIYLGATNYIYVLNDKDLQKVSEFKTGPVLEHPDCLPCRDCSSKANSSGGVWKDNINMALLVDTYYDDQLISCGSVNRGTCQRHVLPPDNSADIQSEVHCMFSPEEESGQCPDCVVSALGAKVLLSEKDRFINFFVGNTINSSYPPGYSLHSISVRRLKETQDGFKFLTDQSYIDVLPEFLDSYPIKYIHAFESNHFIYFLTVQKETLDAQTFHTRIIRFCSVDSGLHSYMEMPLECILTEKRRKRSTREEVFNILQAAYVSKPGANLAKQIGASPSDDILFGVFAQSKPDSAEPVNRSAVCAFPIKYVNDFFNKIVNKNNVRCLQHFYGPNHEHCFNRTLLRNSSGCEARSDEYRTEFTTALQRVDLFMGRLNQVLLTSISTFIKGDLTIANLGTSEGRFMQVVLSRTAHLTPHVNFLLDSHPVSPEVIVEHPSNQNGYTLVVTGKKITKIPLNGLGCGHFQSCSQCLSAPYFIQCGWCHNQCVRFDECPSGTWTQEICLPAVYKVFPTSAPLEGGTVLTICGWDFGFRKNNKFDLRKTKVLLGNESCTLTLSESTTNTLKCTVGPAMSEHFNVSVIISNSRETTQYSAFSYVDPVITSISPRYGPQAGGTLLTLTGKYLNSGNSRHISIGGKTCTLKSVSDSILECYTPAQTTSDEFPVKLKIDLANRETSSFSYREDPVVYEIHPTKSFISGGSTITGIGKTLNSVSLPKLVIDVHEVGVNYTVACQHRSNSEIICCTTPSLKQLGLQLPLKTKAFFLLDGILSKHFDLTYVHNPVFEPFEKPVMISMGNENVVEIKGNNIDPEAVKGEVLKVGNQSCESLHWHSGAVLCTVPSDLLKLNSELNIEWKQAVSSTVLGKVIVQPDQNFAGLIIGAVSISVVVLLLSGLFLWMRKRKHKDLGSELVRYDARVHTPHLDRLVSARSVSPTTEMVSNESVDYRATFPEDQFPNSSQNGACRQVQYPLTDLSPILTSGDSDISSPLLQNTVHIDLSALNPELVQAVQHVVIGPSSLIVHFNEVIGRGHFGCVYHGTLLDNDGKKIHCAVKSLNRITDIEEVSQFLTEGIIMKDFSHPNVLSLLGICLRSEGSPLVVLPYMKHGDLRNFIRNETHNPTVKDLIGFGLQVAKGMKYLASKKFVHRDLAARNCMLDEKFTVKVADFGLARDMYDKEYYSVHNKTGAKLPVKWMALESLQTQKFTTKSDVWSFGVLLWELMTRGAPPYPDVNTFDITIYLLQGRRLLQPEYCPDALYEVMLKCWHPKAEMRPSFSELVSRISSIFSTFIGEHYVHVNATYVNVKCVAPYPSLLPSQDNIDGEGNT
T3 sequence (P08581 1058-1365): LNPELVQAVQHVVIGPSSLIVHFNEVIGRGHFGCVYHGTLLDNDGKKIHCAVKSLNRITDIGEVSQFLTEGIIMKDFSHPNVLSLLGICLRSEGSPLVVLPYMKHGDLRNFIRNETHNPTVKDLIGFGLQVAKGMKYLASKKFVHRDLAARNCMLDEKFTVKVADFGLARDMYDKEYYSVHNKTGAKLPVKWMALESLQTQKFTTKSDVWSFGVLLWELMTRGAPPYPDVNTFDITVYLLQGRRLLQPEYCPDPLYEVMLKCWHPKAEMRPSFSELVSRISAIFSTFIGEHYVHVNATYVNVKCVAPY

Consider `c1ccc(-c2ccc3nnc(COc4ccnc5ccccc45)n3n2)cc1` [Example 2, 4-((6-phenyl-[1,2,4]triazolo[4,3-b]pyridazin-3-yl)methoxy)quinoline], for which the IC50 in assay [1] and in assay [2] was below 1000 nM each time.
In assay [3], `CNC(=O)c1ccc(-c2ccc3nnc(COc4ccnc5cc(OC)ccc45)n3n2)s1` [Example 30, 5-(3-((7-methoxyquinolin-4-yloxy)methyl)-[1,2,4]triazolo[4,3-b]pyridazin-6-yl)-N-methylthiophene-2-carboxamide] registered an IC50 below 500 nM.
Take `COc1cnc2c(NCc3nnc4ccc(-c5cc(C(=O)O)no5)nn34)ccnc2c1` [Example 36, 5-(3-((7-methoxy-1,5-naphthyridin-4-ylamino)methyl)-[1,2,4]triazolo[4,3-b]pyridazin-6-yl)isoxazole-3-carboxylic acid]: the values for the half-inhibitory concentration (IC50) in assay [3], in assay [1] and in assay [2] were below 500 nM, below 1000 nM and below 1000 nM, respectively.
On to `COc1cnc2c(NCc3nnc4ccc(-c5cc(CO)no5)nn34)ccnc2c1` [Example 37, (5-(3-((7-methoxy-1,5-naphthyridin-4-ylamino)methyl)-[1,2,4]triazolo[4,3-b]pyridazin-6-yl)isoxazol-3-yl)methanol], for which the IC50 in assay [3] was below 500 nM; in assay [1], below 1000 nM; in assay [2] it was below 1000 nM.
On to `COc1ccc2c(OCc3nnc4ccc(-c5ccc(N(C)C)nc5)nn34)ccnc2c1` [Example 43, 5-(3-((7-methoxyquinolin-4-yloxy)methyl)-[1,2,4]triazolo[4,3-b]pyridazin-6-yl)-N,N-dimethylpyridin-2-amine], for which the IC50 in assay [1] and in assay [2] was below 1000 nM throughout.
On to `c1ccc(-c2ccc3nnc(Cc4ccc5c(c4)OCO5)n3n2)cc1` [Example 326], for which the Ki in assay [3] was determined as 394 nM.
Compound `Fc1cc(-c2ccccc2)cn2c(Cc3ccc4ncccc4c3)nnc12` [Example 437, 6-((8-fluoro-6-phenyl-[1,2,4]triazolo[4,3-a]pyridin-3-yl)methyl)quinoline] showed a Ki in assay [3] of 36.4 nM.
In the case of `C[C@H](c1nnc2c(F)cc(-c3cnn(CCO)c3)cn12)n1ccc2ncccc2c1=O` [Example 509, (R)-6-(1-(8-fluoro-6-(1-(2-hydroxyethyl)-1H-pyrazol-4-yl)-[1,2,4]triazolo[4,3-a]pyridin-3-yl)ethyl)-1,6-naphthyridin-5(6H)-one], the affinity in assay [3], expressed as Ki, was 3.2 nM.
Same read-out and setting: the value for `Cc1csc(-c2cc(F)c3nnc([C@@H](C)n4ccc5ncccc5c4=O)n3c2)c1` [Example 511, (R)-6-(1-(8-fluoro-6-(4-methylthiophen-2-yl)-[1,2,4]-triazolo[4,3-a]pyridin-3-yl)ethyl)-1,6-naphthyridin-5(6H)-one] was 0.5 nM; that for `Cc1cc(-c2cc(F)c3nnc([C@@H](C)n4ccc5ncc(-c6cnn(C)c6)cc5c4=O)n3c2)on1` [Example 527, 6-((R)-1-(8-fluoro-6-(3-methylisoxazol-5-yl)-[1,2,4]-triazolo[4,3-a]pyridin-3-yl)ethyl)-3-(1-methyl-1H-pyrazol-4-yl)-1,6-naphthyridin-5(6H)-one] was 0.3 nM.

For the origin of these results see patent publication US20120107275A1, “FUSED HETEROCYCLIC DERIVATIVES AND METHODS OF USE” (Amgen Inc., priority 2006, published 2012).
